Values after ≈ are worked out from the molar mass of the structure shown. Values joined by “and” are separate entries in the source; they are usually repeats but may differ in a detail not shown here. Equal values may be shown once.
How the values were obtained:
Experiment in all cases: ≥ marks a high value that may be exact or a test limit, other limits are often not marked, values filed in µg/mL are converted to µM
[1] = tested on: Klebsiella pneumoniae ATCC 13883
[2] = tested on: Escherichia coli ATCC 25922
[3] = tested on: Staphylococcus aureus USA 300
[4] = tested on: Pseudomonas aeruginosa PAO1
[5] = tested on: Bacillus subtilis KCTC 3068
[6] = tested on: Salmonella typhimurium KCTC 1926
[7] = tested on: Pseudomonas aeruginosa KCTC 1637
[8] = tested on: Staphylococcus aureus KCTC 1621
[9] = tested on: Escherichia coli KCTC 1682
[10] = tested on: Staphylococcus epidermidis KCTC 1917
[11] = tested on: Streptococcus mutans
[12] = tested on: Staphylococcus aureus ATCC 43300

Which results are given for `CC(C)C[C@H](NC(=O)[C@H](C)NC(=O)[C@H](CCCCN)NC(=O)CNC(=O)[C@H](CC(C)C)NC(=O)[C@H](C)NC(=O)[C@H](CCCCN)NC(=O)[C@H](CC(C)C)NC(=O)[C@H](C)NC(=O)[C@H](CO)NC(=O)[C@H](CC(C)C)NC(=O)[C@H](CC(C)C)NC(=O)CN)C(N)=O` [GLLSALKALGKAL]?
MIC [1]: 25 µM (≈ 31.3 µg/mL); MIC [2]: 25 µM (≈ 31.3 µg/mL); MIC [3]: 25 µM (≈ 31.3 µg/mL); MIC [4]: > 25 µM

For `CC[C@H](C)[C@H](NC(=O)[C@H](CCCCN)NC(=O)[C@@H]1CCCN1C(=O)[C@H](CC(C)C)NC(=O)[C@@H](N)CCCCN)C(=O)N[C@@H](Cc1c[nH]c2ccccc12)C(=O)N[C@@H](Cc1c[nH]c2ccccc12)C(=O)N[C@H](C(=O)N[C@@H](CCCCN)C(=O)N[C@H](C(=O)N1CCC[C@H]1C(=O)N[C@@H](CCCCN)C(N)=O)C(C)C)[C@@H](C)CC` [KLPKIWWIKVPK], which MIC [5] is on record?
Its MIC is 4.07 µM (≈ 6.25 µg/mL).

And the MIC [6]?
Its MIC is 4.07 µM (≈ 6.25 µg/mL).

And the MIC [7]?
Its MIC is 4.07 µM (≈ 6.25 µg/mL).

And the MIC [8]?
The MIC was 8.14 µM (≈ 12.5 µg/mL).

And the MIC [9]?
The MIC was 8.14 µM (≈ 12.5 µg/mL).

What about the MIC [10] of the same compound?
The MIC was 4.07 µM (≈ 6.25 µg/mL).

With `CC(C)C[C@H](NC(=O)[C@H](Cc1ccc(O)cc1)NC(=O)[C@H](Cc1cnc[nH]1)NC(=O)[C@@H](NC(=O)[C@H](CC(C)C)NC(=O)[C@H](C)NC(=O)[C@H](C)NC(=O)[C@H](CCCCN)NC(=O)[C@H](C)NC(=O)[C@@H](NC(=O)[C@H](Cc1cnc[nH]1)NC(=O)[C@H](CCCCN)NC(=O)CNC(=O)[C@@H](NC(=O)[C@H](Cc1cnc[nH]1)NC(=O)[C@H](C)NC(=O)[C@H](C)NC(=O)[C@H](CCCCN)NC(=O)[C@H](CCCCN)NC(=O)[C@H](Cc1ccccc1)NC(=O)[C@H](Cc1ccccc1)NC(=O)[C@H](CO)NC(=O)CNC(=O)[C@H](Cc1c[nH]c2ccccc12)NC(=O)CN)C(C)C)C(C)C)[C@@H](C)O)C(=O)O` [GWGSFFKKAAHVGKHVAKAALTHYL] as the compound, how does the MIC [5] read?
Its MIC is 2 µM (≈ 5.45 µg/mL).

And the MIC [6]?
Its MIC is 2 µM (≈ 5.45 µg/mL).

And the MIC [7]?
Its MIC is 2 µM (≈ 5.45 µg/mL).

What about the MIC [8] of the same compound?
Its MIC is 1 µM (≈ 2.73 µg/mL).

And the MIC [9]?
Its MIC is 2 µM (≈ 5.45 µg/mL).

And the MIC [10]?
Its MIC is 1 µM (≈ 2.73 µg/mL).

With `C[C@H](NC(=O)[C@H](CO)NC(=O)[C@H](C)NC(=O)[C@H](Cc1ccccc1)NC(=O)[C@H](Cc1c[nH]c2ccccc12)NC(=O)[C@H](CCCN=C(N)N)NC(=O)[C@H](Cc1c[nH]c2ccccc12)NC(=O)[C@H](CCCN=C(N)N)NC(=O)[C@H](Cc1c[nH]c2ccccc12)NC(=O)[C@@H](N)CCCN=C(N)N)C(=O)N[C@@H](CO)C(=O)N[C@@H](C)C(=O)N[C@@H](CCCN=C(N)N)C(=O)N[C@@H](Cc1c[nH]c2ccccc12)C(=O)N[C@@H](CCCN=C(N)N)C(=O)N[C@@H](Cc1c[nH]c2ccccc12)C(=O)N[C@@H](CCCN=C(N)N)C(=O)N[C@@H](Cc1c[nH]c2ccccc12)C(=O)N[C@@H](Cc1ccccc1)C(N)=O` [RWRWRWFASASARWRWRWF] as the compound, how does the MIC [11] read?
The MIC was 5.81 µM (≈ 16 µg/mL).

How did the MIC [11] turn out when `CC(C)C[C@H](NC(=O)[C@H](Cc1c[nH]c2ccccc12)NC(=O)[C@H](CCC(N)=O)NC(=O)[C@H](CC(C)C)NC(=O)[C@H](Cc1ccccc1)NC(=O)[C@@H](NC(=O)[C@H](CCCCN)NC(=O)[C@@H](N)Cc1ccccc1)[C@@H](C)O)C(=O)N[C@@H](Cc1cnc[nH]1)C(=O)N[C@@H](CCCN=C(N)N)C(=O)N[C@@H](Cc1ccccc1)C(N)=O` [FKTFLQWLHRF] was run?
Its MIC is 21 µM (≈ 32 µg/mL).

What does the source list for `CC[C@H](C)[C@H](N)C(=O)N[C@@H](CC(C)C)C(=O)N[C@@H](CCCCN)C(=O)N[C@@H](CC(C)C)C(=O)N[C@@H](Cc1ccccc1)C(=O)N[C@@H](CCCCN)C(=O)N[C@@H](CCCN=C(N)N)C(=O)N[C@H](C(=O)N[C@H](C(=O)N[C@@H](CCCCN)C(=O)N[C@@H](CCCN=C(N)N)C(=O)N[C@H](C(=O)N[C@@H](CC(C)C)C(=O)N[C@@H](CCCCN)C(=O)N[C@@H](Cc1ccccc1)C(=O)N[C@@H](CC(C)C)C(=O)N[C@@H](CCCN=C(N)N)C(=O)N[C@@H](CCCCN)C(=O)N[C@@H](CC(C)C)C(=O)O)[C@@H](C)CC)C(C)C)[C@@H](C)CC` [ILKLFKRIVKRILKFLRKL]?
MIC [5]: 4 µM (≈ 9.7 µg/mL); MIC [6]: 8 µM (≈ 19.4 µg/mL); MIC [7]: 8 µM (≈ 19.4 µg/mL); MIC [8]: 8 µM (≈ 19.4 µg/mL); MIC [9]: 8 µM (≈ 19.4 µg/mL); MIC [10]: 4 µM (≈ 9.7 µg/mL)

`NCCCC[C@H](NC(=O)[C@H](Cc1c[nH]c2ccccc12)NC(=O)[C@H](Cc1c[nH]c2ccccc12)NC(=O)[C@H](CCCCN)NC(=O)[C@H](CCCN=C(N)N)NC(=O)[C@H](CCCN=C(N)N)NC(=O)[C@@H](N)CCCN=C(N)N)C(=O)O` [RRRKWWK] was tested. Which MIC [11] did it give?
The MIC was no less than 224 µM.

Which MIC [3] does the source give for `CC[C@H](C)[C@H](NC(=O)[C@H](CCC(N)=O)NC(=O)[C@H](CCC(N)=O)NC(=O)[C@@H](NC(=O)[C@@H](NC(=O)[C@H](CCCN=C(N)N)NC(=O)[C@H](CCCCN)NC(=O)[C@H](Cc1ccccc1)NC(=O)CN)[C@@H](C)CC)C(C)C)C(=O)N[C@@H](CCC(N)=O)C(=O)N[C@@H](CC(=O)O)C(=O)N[C@@H](Cc1ccccc1)C(=O)N[C@@H](CC(C)C)C(=O)N[C@@H](CCCN=C(N)N)C(=O)N[C@@H](CC(N)=O)C(=O)N[C@@H](CC(C)C)C(=O)N[C@H](C(N)=O)C(C)C` [GFKRIVQQIQDFLRNLV] here?
The MIC was 6.2 µM and 12.5 µM.

How did the MIC [11] turn out when `CC(C)C[C@H](NC(=O)[C@@H](NC(=O)[C@H](CCCN=C(N)N)NC(=O)[C@H](CCCCN)NC(=O)[C@@H](NC(=O)[C@H](CCCCN)NC(=O)[C@H](CCC(N)=O)NC(=O)[C@H](C)NC(=O)[C@H](CC(C)C)NC(=O)[C@@H](N)CCCCN)C(C)C)C(C)C)C(=O)N[C@@H](CCCN=C(N)N)C(=O)O` [KLAQKVKRVLR] was run?
The MIC was no less than 93.4 µM.

Which results are given for `NC(N)=NCCC[C@H](NC(=O)[C@H](CCCN=C(N)N)NC(=O)[C@H](CCCN=C(N)N)NC(=O)[C@@H](N)CCCN=C(N)N)C(=O)N[C@@H](Cc1c[nH]c2ccccc12)C(=O)N[C@@H](Cc1c[nH]c2ccccc12)C(=O)N[C@@H](Cc1c[nH]c2ccccc12)C(=O)O` [RRRRWWW]?
MIC [12]: 125 µM (≈ 150 µg/mL); MIC [4]: 125 µM (≈ 150 µg/mL); MIC [11]: 13.3 µM (≈ 16 µg/mL)

How did the MIC [11] turn out when `CC[C@H](C)[C@H](N)C(=O)N[C@@H](CCCCN)C(=O)N[C@@H](CCC(N)=O)C(=O)N[C@@H](CC(C)C)C(=O)N[C@@H](CC(C)C)C(=O)N[C@@H](Cc1cnc[nH]1)C(=O)N[C@@H](Cc1ccccc1)C(=O)N[C@@H](Cc1ccccc1)C(=O)N[C@@H](CCC(N)=O)C(=O)N[C@@H](CCCN=C(N)N)C(=O)N[C@@H](Cc1ccccc1)C(=O)NCC(=O)NCC(=O)NCC(=O)N[C@@H](CCCN=C(N)N)C(=O)N[C@@H](Cc1c[nH]c2ccccc12)C(=O)N[C@@H](CCCN=C(N)N)C(=O)N[C@@H](CCCN=C(N)N)C(=O)N[C@@H](CC(C)C)C(=O)N[C@@H](CC(C)C)C(=O)N[C@@H](CCCCN)C(=O)N[C@@H](CCCCN)C(=O)N[C@@H](CC(C)C)C(=O)N[C@@H](Cc1cnc[nH]1)C(=O)N[C@@H](Cc1cnc[nH]1)C(=O)N[C@@H](CC(C)C)C(=O)N[C@@H](CC(C)C)C(=O)N[C@@H](Cc1cnc[nH]1)C(N)=O` [IKQLLHFFQRFGGGRWRRLLKKLHHLLH] was run?
Its MIC is 4.52 µM (≈ 16 µg/mL).

How did the MIC [5] turn out when `CC[C@H](C)[C@H](NC(=O)[C@H](CC(C)C)NC(=O)[C@@H](N)CC(C)C)C(=O)N[C@H](C(=O)N[C@@H](CC(C)C)C(=O)N[C@@H](CCCN=C(N)N)C(=O)N[C@@H](CCCN=C(N)N)C(=O)N[C@@H](CCCN=C(N)N)C(=O)N[C@@H](Cc1c[nH]c2ccccc12)C(=O)N[C@@H](CCCN=C(N)N)C(=O)N[C@@H](CCCCN)C(=O)N[C@@H](CCC(N)=O)C(=O)N[C@@H](C)C(=O)N[C@@H](CCCCN)C(=O)N[C@@H](C)C(=O)N[C@@H](CCCCN)C(=O)N[C@@H](CO)C(=O)N[C@@H](CCCCN)C(N)=O)[C@@H](C)CC` [LLIILRRRWRKQAKAKSK] was run?
Its MIC is 4 µM (≈ 9.06 µg/mL).

What about the MIC [6] of the same compound?
Its MIC is 4 µM (≈ 9.06 µg/mL).

What about the MIC [7] of the same compound?
The MIC was 8 µM (≈ 18.1 µg/mL).

And the MIC [8]?
Its MIC is 4 µM (≈ 9.06 µg/mL).

What about the MIC [9] of the same compound?
Its MIC is 8 µM (≈ 18.1 µg/mL).

What about the MIC [10] of the same compound?
The MIC was 8 µM (≈ 18.1 µg/mL).

With `CC(C)C[C@H](NC(=O)[C@H](CCCCN)NC(=O)[C@H](CCCCN)NC(=O)[C@H](CC(C)C)NC(=O)[C@H](CC(C)C)NC(=O)[C@H](CCCCN)NC(=O)[C@H](CCCCN)NC(=O)[C@H](CC(C)C)NC(=O)[C@H](CCCCN)NC(=O)[C@H](CCCCN)NC(=O)[C@H](CCCN=C(N)N)NC(=O)[C@H](CC(C)C)NC(=O)[C@H](CCCN=C(N)N)NC(=O)[C@H](CCCCN)NC(=O)[C@H](CC(C)C)NC(=O)[C@H](CCCN=C(N)N)NC(=O)CN)C(=O)N[C@@H](CO)C(N)=O` [GRLKRLRKKLKKLLKKLS] as the compound, how does the MIC [5] read?
The MIC was 4 µM (≈ 8.82 µg/mL).

And the MIC [6]?
Its MIC is 2 µM (≈ 4.41 µg/mL).

What about the MIC [7] of the same compound?
The MIC was 4 µM (≈ 8.82 µg/mL).

What about the MIC [8] of the same compound?
The MIC was 4 µM (≈ 8.82 µg/mL).

And the MIC [9]?
The MIC was 8 µM (≈ 17.6 µg/mL).

And the MIC [10]?
Its MIC is 8 µM (≈ 17.6 µg/mL).

— DBAASP
